Measurements reported in patent US20110098177A1, “METHODS AND COMPOSITIONS OF PLANT MICRONUTRIENTS” (NOVUS INTERNATIONAL INC., priority 2006, published 2011).

Key:
Type in all cases: in vivo
Tygress tomato plants [1] = assay: Foliar nutrient concentration 2 weeks after treatment, greenhouse tomato (Examples 4-6); details: Zn 0.4 lb/acre
Method in brief: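 Tygress tomato in 2-gallon pots of micronutrient-poor medium (negligible Fe, Zn, Mn, Cu) in greenhouse; foliar treatments at 5 WAT in 200 mL/plant water with non-ionic surfactant. Newest non-applied leaves analysed 2 weeks before and after treatment; marketable fruit harvested three times from 10 WAT, graded. RCBD, 6 replications, LSD 5%.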

Tygress tomato plants [2] = assay: Foliar nutrient concentration at 6 WAT, open-field tomato (Examples 7-10); details: 6 WAT, open field
Method in brief: (§1)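 Open-field 2008 trial, Balm FL; 'Tygress' tomato and 'Patriot' pepper transplants on drip-fed raised beds. Foliar micronutrient sprays at 3 and 5 WAT (BIOX-CM at 4 and 5), 60 gal/acre with surfactant. Youngest mature leaves sampled 6 WAT; RCBD, 5 replications, Fisher's LSD 5%.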

[3] = system: Patriot bell pepper plants; assay: Foliar nutrient concentration at 6 WAT, open-field bell pepper (Examples 7-10); details: 6 WAT, open field
Method in brief: as §1

Tygress tomato plants [4] = assay: Nutrient concentration of tomato fruits at 10 WAT, open field (Examples 7-10); details: 10 WAT; open field; product rate as Table 17
Method in brief: as §1

## EDTA chelated zinc [BIOX-EDZ]
Tygress tomato plants [1]; 2 weeks after Zn treatment
  B concentration in tomato leaves: 21 ppm
  Ca concentration in tomato leaves: 0.6%
  Cu concentration in tomato leaves: 7 ppm
  Fe concentration in tomato leaves: 95 ppm
  K concentration in tomato leaves: 3.6%
  Mg concentration in tomato leaves: 0.3%
  Mn concentration in tomato leaves: 54 ppm
  N concentration in tomato leaves: 3.6%
  P concentration in tomato leaves: 0.5%
Tygress tomato plants [1]; tomato leaves 2 weeks after Zn treatment
  Foliar Zn concentration: 214.bc ppm
Tygress tomato plants [2]
  Foliar Zn concentration of tomato plants, statement: All treatments except BIOX-EDZ resulted in significantly higher foliar Zn concentrations
Tygress tomato plants [2]; product rate as Table 17
  Foliar B concentration of tomato plants: 44 ppm
  Foliar Ca concentration of tomato plants: 1.9%
  Foliar Cu concentration of tomato plants: 371 ppm
  Foliar Fe concentration of tomato plants: 90 ppm
  Foliar K concentration of tomato plants: 5.2%
  Foliar Mg concentration of tomato plants: 0.69%
  Foliar Mn concentration of tomato plants: 207 ppm
  Foliar N concentration of tomato plants: 4.9%
  Foliar P concentration of tomato plants: 0.24%
  Foliar Zn concentration of tomato plants: 310 bc ppm
[3]
  Foliar Zn concentration of bell pepper plants compared to control, statement: significantly higher foliar concentration of Zn
[3]; product rate as Table 17
  Foliar B concentration of bell pepper plants: 59 ppm
  Foliar Ca concentration of bell pepper plants: 4.2%
  Foliar Cu concentration of bell pepper plants: 421 ppm
  Foliar Fe concentration of bell pepper plants: 121 ppm
  Foliar K concentration of bell pepper plants: 3.2%
  Foliar Mg concentration of bell pepper plants: 0.47%
  Foliar Mn concentration of bell pepper plants: 284 ppm
  Foliar N concentration of bell pepper plants: 4.2%
  Foliar P concentration of bell pepper plants: 0.24%
  Foliar Zn concentration of bell pepper plants: 234 a ppm
Tygress tomato plants [4]
  B concentration of tomato fruits: 22 ppm
  Ca concentration of tomato fruits: 0.2%
  Cu concentration of tomato fruits: 23 ppm
  Fe concentration of tomato fruits: 82 ppm
  K concentration of tomato fruits: 8.5%
  Mg concentration of tomato fruits: 0.37%
  Mn concentration of tomato fruits: 43 ppm
  N concentration of tomato fruits: 4.4%
  P concentration of tomato fruits: 0.66%
  Zn concentration of tomato fruits: 1018 ppm
